Source: ChEMBL document CHEMBL6078656, “Pattern-Based Genome Mining Guides Discovery of the Antibiotic Indanopyrrole A from a Marine Streptomycete” (J Nat Prod, 2024)
≈ marks a conversion by molar mass, not a printed value.

Legend:
Acinetobacter baumannii = test: Antibacterial activity against Acinetobacter baumannii 5075 assessed as inhibition of bacterial growth incubated for 24 hrs by CLSI based broth microdilution method; assay type: functional
[1] = test system: Staphylococcus epidermidis; test: Antibacterial activity against methicillin-resistant Staphylococcus epidermidis assessed as inhibition of bacterial growth incubated for 24 hrs by CLSI based broth microdilution method; assay type: functional
Escherichia coli [2] = test: Antibacterial activity against Escherichia coli LptD4213 assessed as inhibition of bacterial growth incubated for 18 hrs by broth microdilution method; assay type: functional
Staphylococcus aureus = test: Antibacterial activity against Staphylococcus aureus TCH1516 assessed as inhibition of bacterial growth incubated for 24 hrs by CLSI based broth microdilution method; assay type: functional
Haemophilus influenzae [3] = test: Antibacterial activity against Haemophilus influenzae 1 assessed as inhibition of bacterial growth incubated for 24 hrs by CLSI based broth microdilution method; assay type: functional
Haemophilus influenzae [4] = test: Antibacterial activity against Haemophilus influenzae 2 assessed as inhibition of bacterial growth incubated for 24 hrs by CLSI based broth microdilution method; assay type: functional
Enterococcus faecium = test: Antibacterial activity against vancomycin-resistant Enterococcus faecium DAPS assessed as inhibition of bacterial growth incubated for 24 hrs by CLSI based broth microdilution method; assay type: functional
A549 = test: Cytotoxicity against human A549 cells assessed as increase in LDH release at 16 microg/ml incubated for 24 hrs; assay type: toxicity, cell-based; details: a549, 24 h, dose 16 µg/ml
Streptococcus = test: Antibacterial activity against Streptococcus M1T1 assessed as inhibition of bacterial growth incubated for 24 hrs by CLSI based broth microdilution method; assay type: functional
Escherichia coli [5] = test: Antibacterial activity against Escherichia coli K1 RS218 assessed as inhibition of bacterial growth incubated for 24 hrs by CLSI based broth microdilution method; assay type: functional

**Q.** `C/C(=C\[C@H]1C=C[C@H]2CC[C@@H](C)[C@@H]2[C@H]1C(=O)c1[nH]c(Cl)c(Cl)c1Cl)C[C@@H](C)C(=O)O` was tested. Which MIC (Acinetobacter baumannii) did it give?
**A.** > 32 µg/mL

**Q.** And the MIC [1]?
**A.** 4 µg/mL (≈ 8.72 µM)

**Q.** What about the MIC (Escherichia coli [2]) of the same molecule?
**A.** 4 µg/mL (≈ 8.72 µM)

**Q.** And the MIC (Staphylococcus aureus)?
**A.** 2 µg/mL (≈ 4.36 µM)

**Q.** What about the MIC (Haemophilus influenzae [3]) of the same molecule?
**A.** 1 µg/mL (≈ 2.18 µM)

**Q.** And the MIC (Haemophilus influenzae [4])?
**A.** 2 µg/mL (≈ 4.36 µM)

**Q.** What about the MIC (Enterococcus faecium) of the same molecule?
**A.** 4 µg/mL (≈ 8.72 µM)

**Q.** And the Activity (A549)?
**A.** Toxic

**Q.** And the MIC (Streptococcus)?
**A.** 4 µg/mL (≈ 8.72 µM)

**Q.** What about the MIC (Escherichia coli [5]) of the same molecule?
**A.** > 32 µg/mL

**Q.** With `C/C(=C\[C@H]1C=C[C@H]2CC[C@@H](C)[C@@H]2[C@H]1C(=O)c1cc(Cl)c(Cl)[nH]1)C[C@@H](C)C(=O)O` as the molecule, how does the MIC (Staphylococcus aureus) read?
**A.** > 16 µg/mL

**Q.** What about the MIC (Enterococcus faecium) of the same molecule?
**A.** > 16 µg/mL

**Q.** And the MIC (Streptococcus)?
**A.** > 16 µg/mL

**Q.** And the MIC (Escherichia coli [5])?
**A.** > 16 µg/mL
